Data as given in US8592594B2, “Tetrahydro-quinoline derivatives” (Hoffmann-La Roche Inc., priority 2010, dated 2013).
pEC50: −log10 of the molar value.

system: recombinant AMPK proteins (α1β1γ1, α2β1γ1, α1(1-335), α1(1-394) or α2(1-394)); test: Scintillation Proximity Assay (SPA), AMPK activation; format: biochemical, human; conditions: effective concentration of activator for 50% of maximal enzyme activity; 50 nM AMPK, 2 μM ATP, 2 μM biotin-SAMS, 30° C., 2 hours
Protocol: Recombinant human AMPK α1β1γ1, α2β1γ1 or AMPK α subunit truncations α1(1-335), α1(1-394) and α2(1-394) were constructed, expressed and purified as described previously (Pang, T., Zhang, Z. S., Gu, M., Qiu, B. Y., Yu, L. F., Cao, P. R., Shao, W., Su, M. B., Li, J. Y., Nan, F. J., and Li, J. (2008). Rat liver AMPK heterotrimer enzyme was obtained from Upstate (Billerica, Mass., U.S.A.).
Scintillation Proximity Assay
Before the Scintillation Proximity Assay (SPA) assay, 200 nM recombinant AMPK proteins (α1β1γ1, α2β1γ1, α1(1-335), α1(1-394) or α2(1-394)) were fully phosphorylated as described previously (Pang et al., 2008). SPA reactions were performed in 96-well plates at a final volume of 50 μL containing 20 mM Tris-HCl pH 7.5, 5 mM MgCl2, 1 mM DTT, 2 μM biotin-SAMS, 2 μM ATP, 0.2 μCi/well [γ-^33P]ATP, and various amount of activator. Reactions were initiated by the addition of 50 nM recombinant AMPK proteins to the reaction solutions and incubated at 30° C. for 2 hours. After that, reactions were terminated by the addition of 40 μL stop solution containing 80 μg streptavidin-coated SPA beads per well, 50 mM ED TA, 0.1% Triton X-100 in PBS, pH 7.5 and incubated for 1 hour. Finally, a 160 μL suspension solution containing 2.4 M CsCl, 50 mM EDTA, and 0.1% Triton X-100 in PBS (pH 7.5) was added to the reaction solution to suspend SPA beads completely. SPA signals were determined with a Wallac MicroBeta plate counter (PerkinElmer) 30 min later for calculation of the amount of product formed. The amount of products formed in 2 hour was plotted against activator concentrations to determine the effective concentration of the activator (EC50) required for 50% of maximal enzyme activity.

Point of comparison: `CC1(C)CC(c2cc(Cl)ccc2F)Nc2cc(Cl)c(C(=O)O)cc21` (stereo not drawn) [Example 17, 7-Chloro-2-(5-chloro-2-fluoro-phenyl)-4,4-dimethyl-1,2,3,4-tetrahydro-quinoline-6-carboxylic acid], pEC50 5.34. Against it:
- O=C(NC1CCC1)c1ccc2c(c1)C1(CC1)CC(c1cc(F)ccc1Br)N2 (stereo not drawn) [Example 35, 2-(2-Bromo-5-fluoro-phenyl)-spiro(cyclopropane-1,4′-1′,2′,3′,4′-tetrahydroquinoline)-6-carboxylic acid cyclobutylamide] — within 0.2 log units, 5.16
- O=C(NC1CCC1)c1ccc2c(c1)C1(CC1)CC(c1cc(Cl)ccc1F)N2 (stereo not drawn) [Example 46, 2-(5-Chloro-2-fluoro-phenyl)-spiro(cyclopropane-1,4′-1′,2′,3′,4′-tetrahydroquinoline)-6-carboxylic acid cyclobutylamide] — 0.22 log units lower, 5.12
- CCC1(C)CC(c2ccc(F)c(Cl)c2)Nc2ccc(C(=O)O)nc21 (stereo not drawn) [Example 26, 6-(3-Chloro-4-fluoro-phenyl)-8-ethyl-8-methyl-5,6,7,8-tetrahydro-[1,5]naphthyridine-2-carboxylic acid] — 0.34 log units higher, 5.68
- O=C(NC1CCC1)c1ccc2c(c1)C1(CCCC1)CC(c1cc(F)ccc1Br)N2 (stereo not drawn) [Example 54, 2-(2-Bromo-5-fluoro-phenyl)-spiro(cyclopentane-1,4′-1′,2′,3′,4′-tetrahydroquinoline)-6-carboxylic acid cyclobutylamide] — 0.24 log units higher, 5.58
- O=C(c1ccc2c(c1)C1(CC1)CC(c1cc(F)ccc1Br)N2)N1CCOCC1 (stereo not drawn) [Example 32, [2-(2-Bromo-5-fluoro-phenyl)-spiro(cyclopropane-1,4′-1′,2′,3′,4′-tetrahydroquinolin)-6-yl]-morpholin-4-yl-methanone] — 0.57 log units higher, 5.91
- C=CC1(C)CC(c2ccc(F)c(Cl)c2)Nc2ccc(C(=O)O)nc21 (stereo not drawn) [Example 25, 6-(3-Chloro-4-fluoro-phenyl)-8-methyl-8-vinyl-5,6,7,8-tetrahydro-[1,5]naphthyridine-2-carboxylic acid] — within 0.2 log units, 5.32
- O=C(O)c1ccc2c(c1)C1(CC1)CC(c1cccc(F)c1)N2 (stereo not drawn) [Example 8, 2-(3-Fluoro-phenyl)-spiro(cyclopropane-1,4′-1′,2′,3′,4′-tetrahydroquinoline)-6-carboxylic acid] — within 0.2 log units, 5.35
- O=C(NC1CCC1)c1ccc2c(c1)C1(CCCC1)CC(c1cc(Cl)ccc1Cl)N2 (stereo not drawn) [Example 61, 2-(2,5-Dichloro-phenyl)-spiro(cyclopentane-1,4′-1′,2′,3′,4′-tetrahydroquinoline)-6-carboxylic acid cyclobutylamide] — within 0.2 log units, 5.22
- CN1CCC(NC(=O)c2ccc3c(c2)C2(CCCC2)CC(c2cc(F)ccc2Br)N3)CC1 (stereo not drawn) [Example 53, 2-(2-Bromo-5-fluoro-phenyl)-spiro(cyclopentane-1,4′-1′,2′,3′,4′-tetrahydroquinoline)-6-carboxylic acid (1-methyl-piperidin-4-yl)-amide] — 0.52 log units higher, 5.86
- CN(C)C(=O)c1ccc2c(c1)C1(CC1)CC(c1cc(F)ccc1Br)N2 (stereo not drawn) [Example 34, 2-(2-Bromo-5-fluoro-phenyl)-spiro(cyclopropane-1,4′-1′,2′,3′,4′-tetrahydroquinoline)-6-carboxylic acid dimethylamide] — 0.23 log units higher, 5.57
- O=C(NC1CC1)c1ccc2c(c1)C1(CCCC1)CC(c1cc(F)ccc1Br)N2 (stereo not drawn) [Example 52, 2-(2-Bromo-5-fluoro-phenyl)-spiro(cyclopentane-1,4′-1′,2′,3′,4′-tetrahydroquinoline)-6-carboxylic acid cyclopropylamide] — within 0.2 log units, 5.32
- O=C(NC1COC1)c1ccc2c(c1)C1(CCCC1)CC(c1cc(F)ccc1Br)N2 (stereo not drawn) [Example 59, 2-(2-Bromo-5-fluoro-phenyl)-spiro(cyclopentane-1,4′-1′,2′,3′,4′-tetrahydroquinoline)-6-carboxylic acid oxetan-3-ylamide] — 0.39 log units lower, 4.95
- O=C(NC1CCC1)c1ccc2c(c1)C1(CCCC1)CC(c1cccc(F)c1)N2 (stereo not drawn) [Example 62, 2-(3-Fluoro-phenyl)-spiro(cyclopentane-1,4′-1′,2′,3′,4′-tetrahydroquinoline)-6-carboxylic acid cyclobutylamide] — 0.46 log units higher, 5.80
- CS(=O)(=O)c1cccc(C2CC3(CC3)c3cc(C(=O)O)ccc3N2)c1 (stereo not drawn) [Example 6, 2-(3-Methanesulfonyl-phenyl)-spiro(cyclopropane-1,4′-1′,2′,3′,4′-tetrahydroquinoline)-6-carboxylic acid] — 0.21 log units lower, 5.13
- O=C(O)c1ccc2c(c1)C1(CC1)CC(c1cc(Cl)ccc1Cl)N2Cc1ccccc1 (stereo not drawn) [Example 14, 1-Benzyl-2-(2,5-dichloro-phenyl)-spiro(cyclopropane-1,4′-1′,2′,3′,4′-tetrahydroquinoline)-6-carboxylic acid] — within 0.2 log units, 5.42
- O=C(O)c1ccc2c(c1)C1(CC1)CC(c1cc(Cl)cc(Cl)c1)N2 (stereo not drawn) [Example 4, 2-(3,5-Dichloro-phenyl)-spiro(cyclopropane-1,4′-1′,2′,3′,4′-tetrahydroquinoline)-6-carboxylic acid] — 0.46 log units lower, 4.88
- O=C(O)c1ccc2c(c1)C1(CCCC1)CC(c1cc(F)ccc1Br)N2 (stereo not drawn) [Example 10, 2-(2-Bromo-5-fluoro-phenyl)-spiro(cyclopentane-1,4′-1′,2′,3′,4′-tetrahydroquinoline)-6-carboxylic acid] — within 0.2 log units, 5.46
- CN(C)C(=O)c1ccc2c(c1)C(C)(C)CC(C(C)(C)c1ccccc1)N2 (stereo not drawn) [Example 50, 4,4-Dimethyl-2-(1-methyl-1-phenyl-ethyl)-1,2,3,4-tetrahydro-quinoline-6-carboxylic acid dimethylamide] — 0.20 log units higher, 5.54
- CNC(=O)c1ccc2c(c1)C1(CC1)CC(c1cc(Cl)ccc1Cl)N2 (stereo not drawn) [Example 38, 2-(2,5-Dichloro-phenyl)-spiro(cyclopropane-1,4′-1′,2′,3′,4′-tetrahydroquinoline)-6-carboxylic acid methylamide] — 0.28 log units higher, 5.62
- O=C(O)c1ccc2c(c1)C1(CC1)CC(c1cc(Br)ccc1F)N2 (stereo not drawn) [Example 2, 2-(5-Bromo-2-fluoro-phenyl)-spiro(cyclopropane-1,4′-1′,2′,3′,4′-tetrahydroquinoline)-6-carboxylic acid] — within 0.2 log units, 5.49
- O=C(NC1CCC1)c1ccc2c(c1)C1(CC1)CC(c1cc(Br)ccc1F)N2 (stereo not drawn) [Example 36, 2-(5-Bromo-2-fluoro-phenyl)-spiro(cyclopropane-1,4′-1′,2′,3′,4′-tetrahydroquinoline)-6-carboxylic acid cyclobutylamide] — within 0.2 log units, 5.25
- O=C(O)c1ccc2c(c1)C1(CCCCC1)CC(c1cc(F)ccc1Br)N2 (stereo not drawn) [Example 9, 2-(2-Bromo-5-fluoro-phenyl)-spiro(cyclohexane-1,4′-1′,2′,3′,4′-tetrahydroquinoline)-6-carboxylic acid] — 0.43 log units higher, 5.77
- CN(C)C(=O)c1ccc2c(c1)C1(CC1)CC(c1cc(Cl)ccc1F)N2 (stereo not drawn) [Example 45, 2-(5-Chloro-2-fluoro-phenyl)-spiro(cyclopropane-1,4′-1′,2′,3′,4′-tetrahydroquinoline)-6-carboxylic acid dimethylamide] — 0.41 log units higher, 5.75
- O=C(NCCO)c1ccc2c(c1)C1(CCCC1)CC(c1cc(F)ccc1Br)N2 (stereo not drawn) [Example 56, 2-(2-Bromo-5-fluoro-phenyl)-spiro(cyclopentane-1,4′-1′,2′,3′,4′-tetrahydroquinoline)-6-carboxylic acid (2-hydroxy-ethyl)-amide] — within 0.2 log units, 5.47
- CC(C)NC(=O)c1ccc2c(c1)C1(CCCC1)CC(c1cc(F)ccc1Br)N2 (stereo not drawn) [Example 60, 2-(2-Bromo-5-fluoro-phenyl)-spiro(cyclopentane-1,4′-1′,2′,3′,4′-tetrahydroquinoline)-6-carboxylic acid isopropylamide] — within 0.2 log units, 5.36
- CCC1(C)CC(c2ccc(F)c(Cl)c2)N(CCC(C)C)c2ccc(C(=O)O)nc21 (stereo not drawn) [Example 27, 6-(3-Chloro-4-fluoro-phenyl)-8-ethyl-8-methyl-5-(3-methyl-butyl)-5,6,7,8-tetrahydro-[1,5]naphthyridine-2-carboxylic acid] — 0.49 log units higher, 5.83
- CC1(c2ccccc2)CC(c2ccc(F)c(Cl)c2)Nc2ccc(C(=O)O)cc21 (stereo not drawn) [Example 20, 2-(3-Chloro-4-fluoro-phenyl)-4-methyl-4-phenyl-1,2,3,4-tetrahydro-quinoline-6-carboxylic acid] — within 0.2 log units, 5.48
- CNC(=O)c1ccc2c(c1)C1(CCCC1)CC(c1cccc(N3CCOCC3)c1)N2 (stereo not drawn) [Example 63, 2-(3-Morpholin-4-yl-phenyl)-spiro(cyclopentane-1,4′-1′,2′,3′,4′-tetrahydroquinoline)-6-carboxylic acid methylamide] — 0.29 log units higher, 5.63
- CC(CO)(CO)NC(=O)c1ccc2c(c1)C(C)(C)CC(c1cccc(N3CCOCC3)c1)N2 (stereo not drawn) [Example 68, 4,4-Dimethyl-2-(3-morpholin-4-yl-phenyl)-1,2,3,4-tetrahydro-quinoline-6-carboxylic acid (2-hydroxy-1-hydroxymethyl-1-methyl-ethyl)-amide] — 0.47 log units higher, 5.81
